One may read the IC50 as the concentration that inhibits the measured activity by half. In general, melting point refers to the temperature of the solid-liquid transition.

The text below walks through data of article PMC6768041 (Chemistry Central Journal, 2018).

A short description of data set [1]: Hydrogen peroxide scavenging (H2O2) assay. The note with it: mean ± SEM, n = 3; read-out: H2O2 radical scavenging IC50. The procedure:
Amongst the reactive oxygen species (ROS), H2O2 is an essential radical as even though it is not lethal of its own accord, but can be changed to further even highly toxic radicals, for instance, OH^• by hypochlorous acid or Fenton reaction by the oxidases enzymes. A solution of H2O2 (40 µM) was added in phosphate buffer saline ([…] pH 7.4). Different quantities of test and references compounds in DMSO were added to 2 mL of hydrogen peroxide solution in buffer solution. Subsequently, upon to 10 min, the absorbance was calculated at 230 nm against a blank solution including phosphate buffer without H2O2 [31]. The percentage of scavenging H2O2 was estimated by the formula in this way: %ScavengingH2O2=AS-AT/Ai×100 where AS is the absorbance of control and AT is the absorbance of the test.

The target in data set [2] is T1, hMAO-A (Homo sapiens, UniProt P21397).
T1 construct: host or cells: insect cells (BTI-TN-5B14), recombinant baculovirus
T1 sequence (P21397 1-527): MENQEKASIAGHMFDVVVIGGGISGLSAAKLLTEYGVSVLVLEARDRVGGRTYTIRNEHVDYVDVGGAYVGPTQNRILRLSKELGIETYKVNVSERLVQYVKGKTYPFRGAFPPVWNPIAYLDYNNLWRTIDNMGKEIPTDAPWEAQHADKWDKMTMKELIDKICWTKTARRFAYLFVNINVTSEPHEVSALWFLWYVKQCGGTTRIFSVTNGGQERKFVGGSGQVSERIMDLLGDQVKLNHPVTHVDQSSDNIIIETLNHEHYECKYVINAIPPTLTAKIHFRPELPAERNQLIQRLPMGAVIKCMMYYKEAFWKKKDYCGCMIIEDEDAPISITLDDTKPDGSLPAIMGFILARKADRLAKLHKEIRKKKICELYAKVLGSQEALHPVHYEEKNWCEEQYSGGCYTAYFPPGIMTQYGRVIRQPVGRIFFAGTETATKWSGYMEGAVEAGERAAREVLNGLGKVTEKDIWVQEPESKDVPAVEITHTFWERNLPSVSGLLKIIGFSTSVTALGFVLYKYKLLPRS
The experiment in a line: hMAO-A inhibition, Amplex Red fluorometric assay.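 For all read-outs here: recombinant human MAO-A and MAO-B from baculovirus-infected insect cell microsomes, H2O2 formation detected fluorometrically via Amplex Red with horseradish peroxidase, background from enzyme-free wells subtracted, distilled water negative control.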 The data set is classed as biochemical. The note with it: for Selectivity index: IC50 (MAO-A)/IC50 (MAO-B); for IC50: recombinant hMAO-A, p-tyramine substrate, mean SEM.
Description: (§1) The biological hMAO activity evaluation of the test drugs was examined by quantifying their action on the generation of H2O2 by p-tyramine (general substrate for hMAO-B and hMAO-A), utilizing the Amplex Red MAO assay kit (Sigma USA) and MAO isoforms (microsomal) obtained from insect cells (BTI-TN-5B14) expressed as recombinant baculovirus consisting cDNA probes for hMAO-A or hMAO-B. Reactions were monitored by thin layer chromatography TLC executed over silica gel precoated plates (0.25 mm) purchased from Merck, envisioned of single spots was carried in iodine and UV chambers, in mobile media TLC- Benzene:Chloroform (7:3).
(§2) All synthesized compounds were evaluated for their capability to inhibit the MAO-A and MAO-B isoforms of human MAO by a fluorometric method. The MAO inhibitory property of the test compounds was examined with the recombinant human enzymes using an Amplex Red Monoamine Oxidase Assay Kit (Sigma USA). The incessant peroxidase-linked photometric assay was performed on the fluorometer. […] Distilled water was used as a negative control. In brief, 0.1 mL of sodium phosphate buffer (0.05 M, pH 7.4) with the test new compounds/reference inhibitors in different concentrations and sufficient quantity of recombinant hMAO-A or hMAO-B requisite and in step to complete our investigational protocol with the equal reaction velocity, (hMAO-A: 1.1 mg protein; explicit activity: 150 nmol of p-tyramine oxidized to p-hydroxyphenylacetaldehyde/min/mg protein; hMAO-B: 7.5 mg protein; explicit activity: 22 nmol of p-tyramine changed/min/mg protein) were incubated for 15 min at 37 °C, placed in the dark fluorometric compartment. After incubation, the effect was attained through the addition of 200 mM Amplex Red reagent (final concentrations), 1 mM p-tyramine, and 1 U/mL horseradish peroxidase. Finally, the generation of hydrogen peroxide and, subsequently, of resorufin was measured at 37 °C in fluorescence reader (λemission, 585 nm, λexcitation, 530 nm) after 15 min, by the time fluorescence amplified linearly. All the control experiments were performed concurrently by changing the reference inhibitors and test compounds with suitable dilutions in the solvents. Moreover, the activity of abovementioned evaluated compounds to alter the fluorescence produced in the combination reaction by (e.g. for reacting with Amplex Red reagent directly) non-enzymatic inhibition was identified by addition of these compounds to solutions having just the Amplex Red reagent in a sodium phosphate buffer. […] The fluorescence reading was computed by subtraction of the background activity and was evaluated from wells with all components not including the hMAO isoforms that was substituted by a sodium phosphate buffer solution. All data was processed in Microsoft Excel, to calculate IC50 values.

Data set [3] is described as follows: DPPH radical scavenging assay. Conditions: mean ± SEM, n = 3. Here is the method: DPPH (2,2-diphenyl-1-picryl-hydrazyl-hydrate) free radical process is an antioxidant assay based on electron-transfer that turns violet color in ethanol. The antioxidant activity was based on free radical scavenging effect towards stable DPPH• radical upon spectrophotometric reaction according to the method reported in the literature. Briefly, solutions of synthesized compounds were prepared in fifty milliliters of various concentrations (25, 50, 75, and 100) µg/mL dissolved in methanol, was added to 5 mL of a 0.004% methanol solution of DPPH. The stock solution was prepared with 0.01% DPPH• in ethanol/water (1:1). While sample solutions were prepared as 5 mL DPPH• solution was mixed with 5 mL ascorbic acid solution then shaken vigorously and kept in the dark at 37 °C. The samples were incubated at the 37 °C temperature for 30 min in the dark chamber subsequently, absorbance was measured. The marketable recognized antioxidant, ascorbic acid was utilized for contrast or as a positive control. Initially, the blank spectrum for ethanol/water was recorded subsequently the spectrophotometric titration was carried out with various concentrations of synthesized compounds. The absorbance was recorded at 517 nm with UV/Vis Epoch ELISA reader, and antioxidant activity was measured as a decrease in absorbance of DPPH•. The IC50 values of free radical DPPH, based on control reading were calculated by the following equation. %inhibition of DPPH radical=Abr-Aar/Abr×100 where Abr is the absorbance prior to reaction and Aar is the absorbance after reaction with DPPH•.
(Loss of DPPH colour is used to gauge radical scavenging.)

The subject of another data set is MAO-A. The note with it: cited from earlier work.
A further data set concerns monoamine oxidase-B. The note with it: cited from earlier work.
Another data set concerns the target T2, hMAO-B (Homo sapiens, UniProt P27338).
T2 construct: host or cells: insect cells (BTI-TN-5B14), recombinant baculovirus
T2 sequence (P27338 1-520): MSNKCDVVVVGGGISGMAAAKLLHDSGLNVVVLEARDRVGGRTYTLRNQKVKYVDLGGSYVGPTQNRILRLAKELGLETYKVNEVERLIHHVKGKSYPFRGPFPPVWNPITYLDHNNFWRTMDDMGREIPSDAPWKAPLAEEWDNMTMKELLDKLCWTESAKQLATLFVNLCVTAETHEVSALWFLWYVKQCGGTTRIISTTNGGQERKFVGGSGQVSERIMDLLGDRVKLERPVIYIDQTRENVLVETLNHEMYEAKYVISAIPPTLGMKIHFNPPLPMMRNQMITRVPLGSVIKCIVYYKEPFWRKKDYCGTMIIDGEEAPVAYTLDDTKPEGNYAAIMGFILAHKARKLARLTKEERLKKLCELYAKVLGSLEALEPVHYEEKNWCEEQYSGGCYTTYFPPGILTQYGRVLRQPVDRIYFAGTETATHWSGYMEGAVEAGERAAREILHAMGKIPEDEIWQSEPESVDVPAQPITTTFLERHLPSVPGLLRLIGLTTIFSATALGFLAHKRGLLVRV
Description: hMAO-B inhibition, Amplex Red fluorometric assay. The data set is classed as biochemical. Conditions: recombinant hMAO-B, p-tyramine substrate; mean SEM.

In the next data set the test system is rMAO-B. The note with it: cited from earlier work.
Data set [4] addresses T1, hMAO-A. Conditions: cited from earlier work.
Another data set has as its system rMAO-A. The note with it: cited from earlier work.

Description for hMAO-B: as §1, §2

`O=C(O)/C=C/c1ccc(O)c(O)c1` [Caffeic acid, reference compound]: the IC50 in [1] was 8.868 ± 0.011 µM; at hMAO-A [2], 11.72 ± 0.044 µM; in data set [3], 9.679 ± 0.013 µM; with MAO-A, over 1000 µM; at hMAO-B, 22.88 ± 0.009 µM. The same compound displayed a Selectivity index at hMAO-A [2] of 0.512. Moreover, in the data set with MAO-A, the “Inhibition of MAO-A activity” value was “up to 40.4%”. The “Monoamine oxidase-B inhibition in words” value with monoamine oxidase-B is “did not produce significant monoamine oxidase-B inhibition”.
`O=C(/C=C/c1ccc(O)c(O)c1)Nc1ccc([N+](=O)[O-])cc1Cl` [Compound 1, (E)-N-(2-chloro-4-nitrophenyl)-3-(3,4-dihydroxyphenyl)acrylamide] showed a melting point of 230 to 231 °C. In addition, the half-maximal inhibitory concentration (IC50) in [1] is 6.292 ± 0.007 µM. Further, at hMAO-A [2], the Selectivity index is recorded as 0.209 and the half-maximal inhibitory concentration (IC50) is 8.87 ± 0.005 µM. In [3], this compound came in with an IC50 of 6.39 ± 0.007 µM. Also, the IC50 at hMAO-B was 42.34 ± 0.077 µM.
Consider `O=C(/C=C/c1ccc(O)c(O)c1)Nc1ccc(Cl)cc1[N+](=O)[O-]` [Compound 2, (E)-N-(4-chloro-2-nitrophenyl)-3-(3,4-dihydroxyphenyl)acrylamide], for which the melting point lay in the range of 200 to 202 °C. The IC50 in data set [1] was 8.544 ± 0.015 µM. For the same compound, at hMAO-A [2], the Selectivity index was 0.191 and the IC50 stood at 8.51 ± 0.017 µM. Further, it took 8.09 ± 0.042 µM to reach half-maximal inhibition in data set [3] (IC50). Also, the IC50 on hMAO-B was found to be 44.42 ± 0.014 µM.
For the compound `O=C(/C=C/c1ccc(O)c(O)c1)Nc1ccc(Br)cc1` [Compound 3, (E)-N-(4-bromophenyl)-3-(3,4-dihydroxyphenyl)acrylamide], the IC50 came out at 12.56 ± 0.021 µM in data set [1], 17.72 ± 0.006 µM on hMAO-A [2], 13.56 ± 0.003 µM in data set [3] and 21.14 ± 0.025 µM at hMAO-B. The compound also gave a Selectivity index at hMAO-A [2] of 0.838.
The corresponding values for `O=C(/C=C/c1ccc(O)c(O)c1)Nc1cccc(F)c1` [Compound 4, (E)-3-(3,4-dihydroxyphenyl)-N-(3-fluorophenyl)acrylamide] are 9.486 ± 0.017 µM, 18.47 ± 0.007 µM, 9.19 ± 0.001 µM, 57.88 ± 0.029 µM and 0.319.
Compound `COc1cc(C=O)ccc1OC(=O)/C=C/c1ccc(O)c(O)c1` [Compound 6, (E)-4-formyl-2-methoxyphenyl 3-(3,4-dihydroxyphenyl)acrylate] came in with a melting point of 150 to 151 °C. The IC50 in data set [1] worked out at 21.69 ± 0.034 µM. At hMAO-A [2], the Selectivity index is 1.252 and the 50% inhibitory concentration (IC50) stood at 20.36 ± 0.002 µM. Moreover, at hMAO-A [2] (hMAO-A vs hMAO-B), the “MAO isoform selectivity in words” value was “selective for hMAO-B”. In addition, in data set [3], the IC50 turned out to be 11.34 ± 0.001 µM. The IC50 at hMAO-B is 16.25 ± 0.035 µM.
With `Cc1ccc(C(C)C)cc1OC(=O)/C=C/c1ccc(O)c(O)c1` [Compound 8, (E)-5-isopropyl-2-methylphenyl 3-(3,4-dihydroxyphenyl)acrylate], the melting point fell in the range of 182 to 182.6 °C. The IC50 in data set [1] turned out to be 11.88 ± 0.008 µM. Moreover, on hMAO-A [2], the Selectivity index was found to be 0.724 and the IC50 worked out at 19.75 ± 0.066 µM. In addition, the IC50 in data set [3] was 11.94 ± 0.025 µM. Besides, the IC50 on hMAO-B came to 27.26 ± 0.072 µM.
As to `O=C(/C=C/c1ccc(O)c(O)c1)Oc1cccc(O)c1` [Compound 9, (E)-3-hydroxyphenyl 3-(3,4-dihydroxyphenyl)acrylate], the melting point lay in the range of 198 to 198.4 °C. In addition, the IC50 in [1] is 9.907 ± 0.014 µM. At hMAO-A [2], the Selectivity index is 0.379 and the IC50 was found to be 10.33 ± 0.012 µM. The IC50 in data set [3] is 10.57 ± 0.004 µM. Moreover, on hMAO-B, the IC50 is 27.25 ± 0.004 µM.
Take `CCNC(=O)/C=C/c1ccc(O)c(O)c1` [Compound 10, (E)-3-(3,4-dihydroxyphenyl)-N-ethylacrylamide]: the IC50 in data set [1] was 11.39 ± 0.042 µM; at hMAO-A [2], 25.22 ± 0.015 µM; in data set [3], 11.34 ± 0.078 µM; on hMAO-B, 12.95 ± 0.046 µM. At hMAO-A [2], this compound showed a Selectivity index of 1.947.
`O=C(/C=C/c1ccc(O)c(O)c1)Oc1ccc2ccccc2c1` [Compound 11, (E)-naphthalen-2-yl 3-(3,4-dihydroxyphenyl)acrylate] returned a melting point of 176 to 176.9 °C. For the same compound, in data set [1], the IC50 amounted to 11.34 ± 0.045 µM. Also, at hMAO-A [2], the Selectivity index was 1.233 and the IC50 turned out to be 24.34 ± 0.011 µM. Moreover, in data set [3], the IC50 was 12.95 ± 0.031 µM. For the same compound, the IC50 at hMAO-B turned out to be 21.48 ± 0.056 µM.
Take `CC1CCC(C(C)C)C(OC(=O)/C=C/c2ccc(O)c(O)c2)C1` (stereo not shown) [Compound 12, (E)-2-isopropyl-5-methylcyclohexyl 3-(3,4-dihydroxyphenyl)acrylate]: the IC50 in data set [1] was found to be 14.65 ± 0.026 µM; at hMAO-A [2], 22.02 ± 0.018 µM; in data set [3], 15.37 ± 0.054 µM; at hMAO-B, 48.54 ± 0.077 µM. This compound displayed a Selectivity index on hMAO-A [2] of 0.453.
Consider `O=c1oc2c(O)c(O)cc3c(=O)oc4c(O)c(O)cc1c4c23` [Ellagic acid], for which the “MAO inhibition value rMAO-B” value with rMAO-B is listed as 412.24 nM rMAO-B.
Turning to `O=C(O)c1cc(O)c(O)c(O)c1` [Gallic acid], the “MAO inhibition value hMAO-A” value at hMAO-A [4] is recorded as 9.49 ± 0.83 hMAO-A µM.
On to `O=C1O[C@H]([C@@H](O)CO)C(O)=C1O` [L-Ascorbic acid, reference compound], for which, in [1], the concentration for half-maximal inhibition (IC50) worked out at 8.12 ± 0.082 µM.
As for `O=C(O)c1ccc(O)c(O)c1` [Protocatechuic acid], the “MAO inhibition value rMAO-A” value in the data set with rMAO-A is 300 µM. For the same compound, the “MAO inhibition value rMAO-B” value in the data set with rMAO-B was 2411 µM.
For `O=C(O)/C=C/c1ccccc1` [Trans-Cinnamic acid], in the data set with rMAO-A, the “MAO inhibition value rMAO-A” value is listed as 6.47 ± 0.73 µM. Besides, in the data set on rMAO-B, the “MAO inhibition value rMAO-B” value is 1.21 ± 0.071 µM.
`O=C(/C=C/c1ccc(O)c(O)c1)O[C@H](Cc1ccc(O)c(O)c1)C(=O)O` [rosmarinic acid]: the “Monoamine oxidase-B inhibition in words” value in the data set on monoamine oxidase-B is recorded as “did not produce significant monoamine oxidase-B inhibition”.
